# Measured values reported in patent US20100069316A1, “TREATMENT FOR MULTIPLE MYELOMA” (Ares Trading S.A., priority 2006, published 2010).
# Entries after “also recorded” stand apart in the source; their conditions may differ.
# Legend:
# Type in all cases: cell-based, human
# [1] = test system: myeloma cell lines (XG-3 and XG-12); experiment: Induction of apoptosis (annexin V) in myeloma cell lines; settings: XG-3 and XG-12, IC10, IC50, IC90 doses, four day culture
# From the text: Apoptotic cells were detected using fluorescein isothiocyanate-labelled annexin V (FITC-annexin-V, Boehringer Mannheim). Annexin V has a high affinity for phosphatidylserine present on the outer cytoplasmic membrane of apoptotic cells. Cells were washed, labeled with FITC-annexin-V according to the manufacturer's recommendations and analyzed with a FACScan flow cytometer using Cell Quest software (Becton Dickinson, Moutain View, Calif., USA).
# (§1) Two myeloma cell lines (XG-3 and XG-12) that are sensitive to compound A (1-(4-{4-[4-(4-chlorophenyl)-pyrimidin-2-ylamino]-benzoyl}-piperazin-1-yl)-ethanone) were selected for the study. To assess the effect of compound A on myeloma cell survival, the percentage apoptotic cells was determined using binding of annexin V to apoptotic cells. The effect of compound A on the cell cycle was assessed by evaluating the percentage of cells in the S phase of the cell cycle by incorporation of BrdU-FITC. Apoptosis, cell cycle and cell numeration were evaluated daily on a four day culture period on the cell lines using the IC10, IC50 and I90 respective doses of compound A.
# XG-3 myeloma cell line = experiment: Cell cycle measurement (BrdU/PI, S phase), XG-3; settings: day 3 of culture
# Description: The cell cycle distribution of the cell lines was assessed by flow cytometry analysis by propidium iodide (PI) and bromodeoxyuridine (BrdU) double-staining. Thirty minutes before stopping the culture, BrdU (10 μM) were added to the cultures and then the cells were collected by centrifugation, washed twice in phosphate buffer saline (PBS) and fixed in 70% ethanol for 20 minutes at room temperature. After two washes with PBS, cells were resuspended in 50 μL of 3N HCl, 0.5% Tween 20 and incubated 20 minutes at 20° C. to denature DNA. The cells were then recovered by centrifugation, resuspended in 250 μL of 10 mM sodium tetraborate to neutralize the reaction, washed twice with PBS, 0.05% Tween 20, and incubated with 20 μL of anti-BrdU-FITC (BD Biosciences). After two additional washes, the cells were resuspended in 500 μL of PBS, 0.05% Tween 20 containing 10 μg/ml PI. The fluorescence of FL1-H (BrdU) and FL2-A (PI) were analyzed on a FACScan flow cytometer using Cell Quest software (Becton Dickinson).
# as §1
# XG7 myeloma cell line = experiment: Cell proliferation assay (tritiated thymidine incorporation), XG7; settings: Homo sapiens, XG7, alone or with fixed Velcade/Melphalan
# Description: (§2) Myeloma cells were harvested in the exponential growth phase (at day 3 after culture passage when the cell concentration is around 5×10^5 cells/ml). Cells were washed twice, cultured for 3 hours in RPMI1640 and 10% FCS, washed twice. This makes it possible to remove cell-bound growth factors (in particular recombinant IL-6). Then cells are plated in 96-well flat-bottomed microplates at various concentrations depending on their doubling time: • 5×10^3 cells/well in 100 μl for the cell lines: XG-1, XG-7 • 10^4 cells/well in […] for the cell lines: XG-2, XG-4, XG-6, XG-11, PRMI8226, L363 • 2×10^4 cells/well in 100 μl for the cell lines: XG-3, XG-12, XG-13, XG-14, XG-19, XG-20
# (§3) The culture medium used were: • PRMI1640, 10% FCS and 0.5 ng/ml of IL-6 for XG-1, XG-2, XG-3, XG-4, XG-6, XG-7, XG-11, XG-12, XG-13, XG-19, XG-20 cells • X-VIVO20 and 0.5 ng/ml IL-6 for XG-14 cells • PRMI1640 and 10% FCS for RPMI8226 and L363 cells
# (§4) The diluted compounds, DMSO or control culture medium were added in 100 μl at the start of the culture. Three culture wells were done for one compound dilution and the experiments were done twice (finally six culture wells for one compound dilution).
# (§5) Cells were cultured for 4 days. Eight hours before the end of the culture, 0.5 μCi of tritiated thymidine were added in 50 μl of RPMI1640 and 10% FCS. Cells were then extracted with a cell collector and the thymidine incorporation was determined using a beta cell counter.
# (§6) For each experiment, the mean tritiated thymidine incorporations (mean values determined on three culture wells) were plotted against the logarithmic concentrations of the compound. The curves were fitted with exponential regression, which was determined using the concentrations defining the inhibition response (usually 3-4 concentrations).
# (§7) The concentrations yielding 50% and 90% inhibition of the proliferation of myeloma cells were determined with these regression curves.
# (§8) The concentration yielding 10% (IC10) or 50% (IC50) inhibition of the myeloma cell lines were determined and the data are listed in Table 2.
# (§9) Compound A was tested in combination with melphalan or Velcade. Increasing concentration of compound A (0, 0.01, 0.03, 0.12, 0.37, 1.1, 3.1, 10, 30 μM) were applied on 4 myeloma cell lines alone or in combination with Velcade or melphalan at concentration yielding around 10% or 50% inhibition.
# XG3 myeloma cell line = experiment: Cell proliferation assay (tritiated thymidine incorporation), XG3; settings: Homo sapiens, XG3, alone or with fixed Velcade/Melphalan
# Description: as §2, §3, §4, §5, §6, §7, §8, §9
# XG-12 myeloma cell line = experiment: Cell numeration, XG-12; settings: day 3 of culture
# Description: as §1
# [2] = test system: non-myeloma bone marrow cells; experiment: Ex vivo survival of non-myeloma bone marrow cells; settings: bone marrow cells of 10 myeloma patients, 5 days, 1, 3.3, 10 μM
# Description: Bone marrow cells from 10 patients with multiple myeloma (5 patients at diagnosis and 5 relapsing patients) were harvested and mononuclear cells isolated by ficoll hypaque centrifugation.
# At day 5, cell numbers were counted and the percentage and counts of myeloma cells were determined by FACS staining using an anti-CD138 monoclonal antibody. This made it possible to assay for viable myeloma cells as CD138 is lost on pre-apoptotic myeloma cells (Jourdan, M. et al. (1998) Br. J. Haematol., 100, 637-648). The percentage and count of CD34 hematopoietic progenitors was also determined with an anti-CD34 monoclonal antibody and FACS labeling.
# Bone marrow mononuclear cells from 5 patients with newly diagnosed multiple myeloma or from 5 patients with relapsing multiple myeloma were cultured for 5 days with culture medium and 10% fetal calf serum. […] At the end of culture, cells were counted. Viable myeloma cells were determined using FACS labeling with anti-CD138 monoclonal antibody, as well as viable hematopoietic stem cells using an anti-CD34 monoclonal antibody. Results are expressed as the percentage of viable myeloma cells, non-myeloma cells, or CD34 cells compared to the control culture group without inhibitor.
# [3] = concentration of compound A yielding 50% inhibition of proliferation, read-out: IC50
# [4] = concentration of compound A yielding 90% inhibition of proliferation
compound,measurement,setting,value
"CC(=O)N1CCN(C(=O)c2ccc(Nc3nccc(-c4ccc(Cl)cc4)n3)cc2)CC1 [Compound A, 1-(4-{4-[4-(4-Chloro-phenyl)-pyrimidin-2-ylamino]-benzoyl}-piperazin-1-yl)-ethanone]",induction of apoptosis of myeloma cell lines,[1],induced apoptosis of myeloma cell lines; also recorded: dose- and time-dependent
same,S phase (%) percentage of cells in the S phase,"XG-3 myeloma cell line; XG-3, compound A at IC10 concentration",32.1%
same,S phase (%) percentage of cells in the S phase,"XG-3 myeloma cell line; XG-3, compound A at IC50 concentration",29.2%
same,S phase (%) percentage of cells in the S phase,"XG-3 myeloma cell line; XG-3, compound A at IC90 concentration",15.3%
same,IC50,XG7 myeloma cell line; [3],6.36 µM
same,IC90,XG7 myeloma cell line; [4],9.33 µM
same,IC50,XG3 myeloma cell line; [3],1.49 µM
same,IC90,XG3 myeloma cell line; [4],6.35 µM
same,Cells (×10^6/ml) cell counts,"XG-12 myeloma cell line; XG-12, compound A at IC50 concentration",0.35 ×10^6/ml
same,Cells (×10^6/ml) cell counts,"XG-12 myeloma cell line; XG-12, compound A at IC90 concentration",0.11 ×10^6/ml
same,survival of other (non-myeloma) bone marrow cells,[2],without affecting the survival of other bone marrow cells
